{
  "source": "patent US11325907B2",
  "about": "“Crystal form of 1H-imidazo[4,5-b]pyridine-2(3H)-one compound and preparation process therefor” (MEDSHINE DISCOVERY INC., priority 2018, dated 2022)",
  "experiment": "Solid stability test under long-term conditions (25° C./Relative Humidity 60%, sealed)",
  "format": "physicochemical",
  "description": "Content Determination Method\nDevice: Agilent 1260 High Performance Liquid Chromatograph with DAD detector or Shimadzu LC-20A High Performance Liquid Chromatograph with PDA detector\nDetailed Chromatographic parameters are as follows:\nChromatographic column: Agilent Eclipse plus C18 (4.6 mm×150 mm, 3.5 μm)\nColumn temperature: 40° C.\nDetecting wavelength: 230 nm\nMobile Phase A: 0.04% trifluoroacetic acid aqueous solution (V/V)\nMobile Phase B: acetonitrile\nDiluent: acetonitrile: purified water=3:1 (v/v)\nProbe Wash: acetonitrile: purified water=3:1 (v/v)\nGradient elution procedure: […]\nEach layer of the low-density polyethylene bag was buckled and sealed respectively and then the bag was placed in an aluminum foil bag and heat-sealed. The samples were taken on the 3rd, 6th, 9th, 12th and 18th months for testing and the test results were compared with the initial test results of day 0.",
  "key": {"[1]": {"conditions": "Batch 1, 25° C./Relative Humidity 60%, Sealed, 3rd month"}, "[2]": {"conditions": "Batch 1, 25° C./Relative Humidity 60%, Sealed, 6th month"}, "[3]": {"conditions": "Batch 1, 25° C./Relative Humidity 60%, Sealed, 9th month"}, "[4]": {"conditions": "Batch 1, 25° C./Relative Humidity 60%, Sealed, 12th month"}, "[5]": {"conditions": "Batch 1, 25° C./Relative Humidity 60%, Sealed, 18th month"}, "[6]": {"conditions": "Batch 2, 25° C./Relative Humidity 60%, Sealed, 3rd month"}, "[7]": {"conditions": "Batch 2, 25° C./Relative Humidity 60%, Sealed, 6th month"}, "[8]": {"conditions": "Batch 2, 25° C./Relative Humidity 60%, Sealed, 9th month"}, "[9]": {"conditions": "Batch 2, 25° C./Relative Humidity 60%, Sealed, 12th month"}, "[10]": {"conditions": "Batch 2, 25° C./Relative Humidity 60%, Sealed, 18th month"}, "[11]": {"conditions": "Batch 3, 25° C./Relative Humidity 60%, Sealed, 3rd month"}, "[12]": {"conditions": "Batch 3, 25° C./Relative Humidity 60%, Sealed, 6th month"}, "[13]": {"conditions": "Batch 3, 25° C./Relative Humidity 60%, Sealed, 9th month"}, "[14]": {"conditions": "Batch 3, 25° C./Relative Humidity 60%, Sealed, 12th month"}, "[15]": {"conditions": "Batch 3, 25° C./Relative Humidity 60%, Sealed, 18th month"}},
  "data": [
    {"compound": "CCOc1cc([C@@H](CS(C)(=O)=O)n2c(=O)[nH]c3c(C)c(-c4ccccc4F)cnc32)ccc1OC", "note": "[Crystal Form A of Compound 1]", "values": [
      {"measurement": "Appearance", "setting": "[1]", "result": "White powder"},
      {"measurement": "Content", "setting": "[1]", "result": 99.0, "unit": "%"},
      {"measurement": "Total Impurity", "setting": "[1]", "result": 0.09, "unit": "%"},
      {"measurement": "Appearance", "setting": "[2]", "result": "White powder"},
      {"measurement": "Content", "setting": "[2]", "result": 101.4, "unit": "%"},
      {"measurement": "Crystal Form (XRPD)", "setting": "[2]", "result": "Crystal Form A"},
      {"measurement": "Total Impurity", "setting": "[2]", "result": 0.09, "unit": "%"},
      {"measurement": "Appearance", "setting": "[3]", "result": "White powder"},
      {"measurement": "Content", "setting": "[3]", "result": 99.6, "unit": "%"},
      {"measurement": "Total Impurity", "setting": "[3]", "result": 0.09, "unit": "%"},
      {"measurement": "Appearance", "setting": "[4]", "result": "White powder"},
      {"measurement": "Content", "setting": "[4]", "result": 98.8, "unit": "%"},
      {"measurement": "Crystal Form (XRPD)", "setting": "[4]", "result": "Crystal Form A"},
      {"measurement": "Total Impurity", "setting": "[4]", "result": 0.08, "unit": "%"},
      {"measurement": "Appearance", "setting": "[5]", "result": "White powder"},
      {"measurement": "Content", "setting": "[5]", "result": 97.3, "unit": "%"},
      {"measurement": "Total Impurity", "setting": "[5]", "result": 0.10, "unit": "%"},
      {"measurement": "Appearance", "setting": "Batch 1, Day 0", "result": "White powder"},
      {"measurement": "Content", "setting": "Batch 1, Day 0", "result": 99.4, "unit": "%"},
      {"measurement": "Crystal Form (XRPD)", "setting": "Batch 1, Day 0", "result": "Crystal Form A"},
      {"measurement": "Total Impurity", "setting": "Batch 1, Day 0", "result": 0.09, "unit": "%"},
      {"measurement": "Appearance", "setting": "[6]", "result": "White powder"},
      {"measurement": "Content", "setting": "[6]", "result": 100.5, "unit": "%"},
      {"measurement": "Total Impurity", "setting": "[6]", "result": 0.11, "unit": "%"},
      {"measurement": "Appearance", "setting": "[7]", "result": "White powder"},
      {"measurement": "Content", "setting": "[7]", "result": 100.1, "unit": "%"},
      {"measurement": "Crystal Form (XRPD)", "setting": "[7]", "result": "Crystal Form A"},
      {"measurement": "Total Impurity", "setting": "[7]", "result": 0.12, "unit": "%"},
      {"measurement": "Appearance", "setting": "[8]", "result": "White powder"},
      {"measurement": "Content", "setting": "[8]", "result": 99.6, "unit": "%"},
      {"measurement": "Total Impurity", "setting": "[8]", "result": 0.11, "unit": "%"},
      {"measurement": "Appearance", "setting": "[9]", "result": "White powder"},
      {"measurement": "Content", "setting": "[9]", "result": 98.2, "unit": "%"},
      {"measurement": "Crystal Form (XRPD)", "setting": "[9]", "result": "Crystal Form A"},
      {"measurement": "Total Impurity", "setting": "[9]", "result": 0.09, "unit": "%"},
      {"measurement": "Appearance", "setting": "[10]", "result": "White powder"},
      {"measurement": "Content", "setting": "[10]", "result": 99.1, "unit": "%"},
      {"measurement": "Total Impurity", "setting": "[10]", "result": 0.11, "unit": "%"},
      {"measurement": "Appearance", "setting": "Batch 2, Day 0", "result": "White powder"},
      {"measurement": "Content", "setting": "Batch 2, Day 0", "result": 99.4, "unit": "%"},
      {"measurement": "Crystal Form (XRPD)", "setting": "Batch 2, Day 0", "result": "Crystal Form A"},
      {"measurement": "Total Impurity", "setting": "Batch 2, Day 0", "result": 0.10, "unit": "%"},
      {"measurement": "Appearance", "setting": "[11]", "result": "White powder"},
      {"measurement": "Content", "setting": "[11]", "result": 98.9, "unit": "%"},
      {"measurement": "Total Impurity", "setting": "[11]", "result": 0.16, "unit": "%"},
      {"measurement": "Appearance", "setting": "[12]", "result": "White powder"},
      {"measurement": "Content", "setting": "[12]", "result": 98.5, "unit": "%"},
      {"measurement": "Crystal Form (XRPD)", "setting": "[12]", "result": "Crystal Form A"},
      {"measurement": "Total Impurity", "setting": "[12]", "result": 0.12, "unit": "%"},
      {"measurement": "Appearance", "setting": "[13]", "result": "White powder"},
      {"measurement": "Content", "setting": "[13]", "result": 99.2, "unit": "%"},
      {"measurement": "Total Impurity", "setting": "[13]", "result": 0.11, "unit": "%"},
      {"measurement": "Appearance", "setting": "[14]", "result": "White powder"},
      {"measurement": "Content", "setting": "[14]", "result": 98.4, "unit": "%"},
      {"measurement": "Crystal Form (XRPD)", "setting": "[14]", "result": "Crystal Form A"},
      {"measurement": "Total Impurity", "setting": "[14]", "result": 0.10, "unit": "%"},
      {"measurement": "Appearance", "setting": "[15]", "result": "White powder"},
      {"measurement": "Content", "setting": "[15]", "result": 99.7, "unit": "%"},
      {"measurement": "Total Impurity", "setting": "[15]", "result": 0.17, "unit": "%"},
      {"measurement": "Appearance", "setting": "Batch 3, Day 0", "result": "White powder"},
      {"measurement": "Content", "setting": "Batch 3, Day 0", "result": 99.5, "unit": "%"},
      {"measurement": "Crystal Form (XRPD)", "setting": "Batch 3, Day 0", "result": "Crystal Form A"},
      {"measurement": "Total Impurity", "setting": "Batch 3, Day 0", "result": 0.11, "unit": "%"},
      {"measurement": "Solid stability (conclusion)", "setting": "long-term conditions of 25° C./Relative Humidity 60%", "result": "good stability"}
    ]}
  ]
}
